According to patent US20220025003A1, “REAGENTS AND METHODS FOR CONTROLLING PROTEIN FUNCTION AND INTERACTION” (University of Washington, priority 2018, published 2022):

Key:
[1] = tested on: mCherry reporter gene in HEK293T cells; assay: Chemically-disruptable Gal4(DBD)-NS3a(H1)/ANR-VPR transcriptional regulation; assay type: cell-based; settings: 1 μM drug, 24 hours
Procedure: Cells were subsequently transfected with 1 μg of the Gal4 reporter plasmid (UAS-mCherry™/CMV-Gal4-NS3a(H1)-P2A-ANR-Myc-BFP-VPR-NLS) in OptiMem™. […] Supernatant was subsequently removed and the cells were re-suspended in 400 μL DPBS and analyzed on a FACS LSRII (BD Biosciences).
For Gal4/NS3a-CDP mediated transcriptional activation FACS experiments, 10,000 single cell events were collected for each of the samples run. […] The gathered FACS data were analyzed using FlowJo™ (v.10.1).

CXCR4 = assay: dCas9 transcription control, immunofluorescence FACS; assay type: cell-based, human; settings: CXCR4 and CD95
HeLa cells = assay: Widefield microscopy for signaling phenotype analysis; assay type: cell-based; settings: EGFP-DNCR2-TIAM, BFP-GNCR1-LARG and NS3a-CAAX in HeLa cells
Procedure: Widefield images were collected in an environmental chamber with humidity control, 37° C., and 5% CO2 on a Leica DMi8 automated fluorescence microscope. Cells were plated on glass-bottomed 96-well plates (Cellvis). Plates were treated with 10 μg/mL bovine fibronectin (Sigma Aldrich) for 1 hour and washed once with PBS.
The cell line used was TRex™-HeLa (ThermoFisher Scientific), into which Lifeact-mCherry™ was stably integrated into the doxycycline-regulated Flp-In site by co-transfection of the pCDNA5-FRT/TO-Lifeact-mCherry™ vector with the Flp recombinase plasmid pOG44 (ThermoFisher Scientific) according to manufacturer's protocols. Lifeact-mCherry™ was induced by addition of 1 μg/mL doxycycline to culture media. For expression of signaling effector proteins, 1 day prior to imaging, 5×10^6 cells were transiently transfected with 10 μg DNA in a 100 μL electroporation tip using a Neon transfection system (ThermoFisher Scientific) according to manufacturer's recommendations for HeLa cells. 5×10^3 cells were plated in each well of the 96-well plate used for imaging. Cells recovered in complete DMEM with 10% FBS overnight. […] For Rac/Rho regulation, the construct PB-NS3a-CAAX-IRES-EGFP-DNCR2-TIAM-P2a-BFP-GNCR1-LARG was used, with images collected for the mCherry™ (Lifeact) and EGFP (DNCR2-TIAM) channels. […]

With `CC(C)(C)OC(=O)N[C@H]1CCCCC/C=C\[C@@H]2C[C@@]2(C(=O)NS(=O)(=O)C2CC2)NC(=O)[C@@H]2C[C@@H](OC(=O)N3Cc4cccc(F)c4C3)CN2C1=O` [danoprevir] the “mCherry expression after drug treatment” value [1] was “decreased mCherry™ expression to background levels”, the “effect on gene expression in the absence of the guide RNA” value (CXCR4) was “no effect” and the cell shape change (HeLa cells) was “caused cell expansion”.
